For the assay, the system named is mice. Kind of assay: analgesic activity by pressure stimulation method (base of tail). Type of assay: in vivo. The following applies: Mus musculus, read-out: ED50 (dose providing 50% of % of MPE, analgesic activity). How it is done:
The analgesic activities of peptide derivatives of the present invention were evaluated by pressure stimulation method as follows. Mice were subjected to pressure stimulation at the bases of their tails at a rate of 10 mmHg/second. […] For the experiments, mice that were preliminary determined to respond to a pressure of 40-50 mmHg were used. The maximum stimulating pressure was 100 mmHg. Analgesic activity was calculated as percent of maximum possible effect (% of MPE) according to the following equation: [formula]
wherein Po is the pain reaction threshold before the administration of a drug; Pt is the pain reaction threshold "t" minutes after the administration of the drug; and Pc is the maximum stimulating pressure. According to a dose-response curve, ED50 value was determined as a dose of drug providing 50% of % of MEP and used for comparison of analgesic activity of drugs.

The results in this text go back to US6228841A, “Peptide derivatives” (Daiichi Pharmaceutical Co., Ltd., priority 1995, dated 2001).

Each structure is given as a SMILES string. Read-outs that look alike come from different tables or passages of the source.

One may read the ED50 as the midpoint of the dose-response relation. In the case of `CN1CC[C@]23c4c5ccc(O)c4O[C@H]2[C@@H](O)C=C[C@H]3[C@H]1C5` [morphine], the ED50 (oral administration) amounted to 29.6 mg/kg and the ED50 (sc, subcutaneous administration (skin in the backs)) turned out to be 4.6 mg/kg.
